The structures appear in SMILES notation.

The values below come from ChEMBL document CHEMBL1136562, “Structure-activity relationships of substituted benzothiophene-anthranilamide factor Xa inhibitors” (Bioorg Med Chem Lett, 2003).

Test [1] addresses Cationic trypsin (Bos taurus). In words: Inhibition constant against bovine trypsin.
For test [2], the target named is Coagulation factor X (Homo sapiens, UniProt P00742). In words: Inhibition constant against human factor Xa. The note with it: read-out: Ki app.
The target of test [3] is Prothrombin (Homo sapiens, UniProt P00734). In words: Inhibition constant against human thrombin. The conditions noted are these: read-out: Ki app.

Sequence of Coagulation factor X (P00742 41-179 limits assumed): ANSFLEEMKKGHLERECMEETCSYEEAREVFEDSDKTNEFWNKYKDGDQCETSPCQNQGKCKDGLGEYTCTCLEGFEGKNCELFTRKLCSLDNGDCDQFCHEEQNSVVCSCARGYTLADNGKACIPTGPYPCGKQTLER
Sequence of Coagulation factor X (P00742 235-488 limits assumed): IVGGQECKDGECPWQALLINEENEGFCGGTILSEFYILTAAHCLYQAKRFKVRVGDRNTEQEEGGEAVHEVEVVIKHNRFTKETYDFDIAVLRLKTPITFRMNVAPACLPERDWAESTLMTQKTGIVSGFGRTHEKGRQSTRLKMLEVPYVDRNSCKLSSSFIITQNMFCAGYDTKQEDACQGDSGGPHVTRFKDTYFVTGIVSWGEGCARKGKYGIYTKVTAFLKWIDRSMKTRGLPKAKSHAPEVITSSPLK

Regarding `Cc1ccc(C(=O)Nc2ccc(Cl)cc2)c(NC(=O)c2sc3ccccc3c2Cl)c1`, the Ki app in test [1] is recorded as greater than 5000 nM. Moreover, the Ki was 7.2 nM in test [2] and greater than 5000 nM in test [3].

In test [1], `O=C(Nc1ccc(Cl)cc1)c1cc(Cl)ccc1NC(=O)c1sc2ccccc2c1Cl` showed a Ki app greater than 5000 nM. In addition, the figures for the Ki in test [2] and in test [3] were 0.6 nM and greater than 5000 nM, respectively.

For the compound `COc1cc(Cl)cc(C(=O)Nc2ccc(Cl)cc2)c1NC(=O)c1sc2ccccc2c1Cl`, the Ki app in test [1] is greater than 5000 nM. In addition, the Ki in test [2] was 2.2 nM; in test [3] it was greater than 5000 nM.
